From ChEMBL document CHEMBL3739380, “Discovery of benzothiazoles as antimycobacterial agents: Synthesis, structure-activity relationships and binding studies with Mycobacterium tuberculosis decaprenylphosphoryl-β-D-ribose 2'-oxidase” (Bioorg Med Chem, 2015)
Values after ≈ are worked out from the molar mass of the structure shown. Active and inactive are the calls of the source. No cut-off for these calls is given here.

Legend:
[1] = molecular target: Cytochrome P450 2C9 (Homo sapiens, UniProt P11712); assay: Inhibition of human recombinant CYP2C9 by fluorescence assay; format: ADME
Chain of Cytochrome P450 2C9 (P11712 whole entry): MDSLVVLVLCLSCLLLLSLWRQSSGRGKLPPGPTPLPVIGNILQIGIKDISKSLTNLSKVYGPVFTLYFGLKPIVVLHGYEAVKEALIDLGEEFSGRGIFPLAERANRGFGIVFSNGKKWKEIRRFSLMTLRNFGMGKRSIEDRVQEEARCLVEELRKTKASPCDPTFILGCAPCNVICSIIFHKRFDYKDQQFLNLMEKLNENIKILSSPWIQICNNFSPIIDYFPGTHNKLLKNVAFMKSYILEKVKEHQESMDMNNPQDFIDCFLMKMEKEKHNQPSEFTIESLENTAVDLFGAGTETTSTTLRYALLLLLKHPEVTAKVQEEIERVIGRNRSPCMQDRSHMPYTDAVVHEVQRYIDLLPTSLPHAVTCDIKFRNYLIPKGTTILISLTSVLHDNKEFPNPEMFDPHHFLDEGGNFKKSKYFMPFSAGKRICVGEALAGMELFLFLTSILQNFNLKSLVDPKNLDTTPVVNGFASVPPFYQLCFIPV

[2] = molecular target: T1, Cytochrome P450 1A2 (Homo sapiens, UniProt P05177); assay: Inhibition of human recombinant CYP1A2 by fluorescence assay; format: ADME
T1 sequence (P05177 whole entry): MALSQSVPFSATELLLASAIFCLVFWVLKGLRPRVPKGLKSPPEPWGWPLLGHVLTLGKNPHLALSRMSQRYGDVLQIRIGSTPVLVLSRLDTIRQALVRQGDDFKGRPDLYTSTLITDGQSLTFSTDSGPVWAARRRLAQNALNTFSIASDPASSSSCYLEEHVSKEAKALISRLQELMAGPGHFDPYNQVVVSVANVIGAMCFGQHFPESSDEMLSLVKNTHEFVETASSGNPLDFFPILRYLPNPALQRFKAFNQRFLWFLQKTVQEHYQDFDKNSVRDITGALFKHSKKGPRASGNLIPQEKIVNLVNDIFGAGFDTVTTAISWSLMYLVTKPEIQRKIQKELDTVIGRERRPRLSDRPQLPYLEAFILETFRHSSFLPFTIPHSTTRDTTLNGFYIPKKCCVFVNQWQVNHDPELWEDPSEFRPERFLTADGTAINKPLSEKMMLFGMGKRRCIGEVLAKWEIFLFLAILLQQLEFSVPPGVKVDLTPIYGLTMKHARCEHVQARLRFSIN

[3] = Inhibition of Mycobacterium tuberculosis DprE1 using farnesyl-phosphoryl-beta-D-ribofuranose as substrate preincubated for 30 mins before substrate addition by peroxidase coupled assay
[4] = test system: Mycobacterium tuberculosis; assay: Antimycobacterial activity against Mycobacterium tuberculosis H37Rv ATCC 27294 after 5 days by microdilution method; format: functional; conditions: H37Rv ATCC 27294, 120 h
[5] = molecular target: Cytochrome P450 2D6 (Homo sapiens, UniProt P10635); assay: Inhibition of human recombinant CYP2D6 by fluorescence assay; format: ADME
Chain of Cytochrome P450 2D6 (P10635 whole entry): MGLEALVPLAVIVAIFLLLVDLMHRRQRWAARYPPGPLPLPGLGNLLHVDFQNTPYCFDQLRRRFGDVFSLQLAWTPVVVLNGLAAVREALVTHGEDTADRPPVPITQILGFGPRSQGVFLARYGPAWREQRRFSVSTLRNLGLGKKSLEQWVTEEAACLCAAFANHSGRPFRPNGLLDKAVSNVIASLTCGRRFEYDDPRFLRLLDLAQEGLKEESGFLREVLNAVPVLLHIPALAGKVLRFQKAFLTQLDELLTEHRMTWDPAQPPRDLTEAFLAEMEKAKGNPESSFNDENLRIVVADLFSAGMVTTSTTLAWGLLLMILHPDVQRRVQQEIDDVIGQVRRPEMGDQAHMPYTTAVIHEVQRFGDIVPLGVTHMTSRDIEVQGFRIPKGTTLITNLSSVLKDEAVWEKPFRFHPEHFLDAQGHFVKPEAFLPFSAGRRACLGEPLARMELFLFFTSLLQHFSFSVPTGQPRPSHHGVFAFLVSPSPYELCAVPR

[6] = molecular target: Cytochrome P450 2C19 (Homo sapiens, UniProt P33261); assay: Inhibition of human recombinant CYP2C19 by fluorescence assay; format: ADME
Chain of Cytochrome P450 2C19 (P33261 whole entry): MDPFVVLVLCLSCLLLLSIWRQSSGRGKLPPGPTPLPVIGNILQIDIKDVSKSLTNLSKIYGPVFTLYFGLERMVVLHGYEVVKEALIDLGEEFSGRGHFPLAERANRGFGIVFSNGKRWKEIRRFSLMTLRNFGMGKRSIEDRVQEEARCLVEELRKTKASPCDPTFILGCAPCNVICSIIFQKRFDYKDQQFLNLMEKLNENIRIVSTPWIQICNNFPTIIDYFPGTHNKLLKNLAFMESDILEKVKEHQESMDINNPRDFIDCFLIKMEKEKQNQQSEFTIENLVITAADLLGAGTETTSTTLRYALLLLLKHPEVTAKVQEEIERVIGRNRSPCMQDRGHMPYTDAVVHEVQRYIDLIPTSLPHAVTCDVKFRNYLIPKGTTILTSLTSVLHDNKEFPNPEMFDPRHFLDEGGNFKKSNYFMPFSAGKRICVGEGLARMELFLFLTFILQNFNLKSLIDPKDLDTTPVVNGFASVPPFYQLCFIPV

[7] = molecular target: Cytochrome P450 3A4 (Homo sapiens, UniProt P08684); assay: Inhibition of human recombinant CYP3A4 by fluorescence assay; format: ADME
Chain of Cytochrome P450 3A4 (P08684 whole entry): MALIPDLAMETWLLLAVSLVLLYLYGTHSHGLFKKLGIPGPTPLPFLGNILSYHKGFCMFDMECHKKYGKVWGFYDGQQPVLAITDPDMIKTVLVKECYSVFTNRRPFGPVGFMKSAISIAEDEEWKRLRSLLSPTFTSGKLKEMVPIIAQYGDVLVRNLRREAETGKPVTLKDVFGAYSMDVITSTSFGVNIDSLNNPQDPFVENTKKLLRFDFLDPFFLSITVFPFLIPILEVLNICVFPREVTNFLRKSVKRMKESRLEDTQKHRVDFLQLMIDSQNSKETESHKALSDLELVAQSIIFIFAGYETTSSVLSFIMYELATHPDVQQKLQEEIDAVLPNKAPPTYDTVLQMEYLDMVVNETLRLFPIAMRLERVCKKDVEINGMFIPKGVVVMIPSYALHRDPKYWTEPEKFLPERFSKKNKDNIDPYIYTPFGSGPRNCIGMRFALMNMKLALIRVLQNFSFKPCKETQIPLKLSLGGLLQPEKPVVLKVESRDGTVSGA

[8] = test system: A549; assay: Cytotoxicity against human A549 cells after 72 hrs by fluorescence assay; format: cell-based; conditions: A549, 72 h
[9] = Aqueous solubility of the compound; format: physicochemical; conditions: buffer
[10] = Fraction unbound in mouse plasma protein; format: ADME, cell-free
[11] = Intrinsic clearance in mouse liver microsomes; format: ADME; conditions: read-out: CLH
[12] = test system: Salmonella typhimurium; assay: Genotoxicity in Salmonella typhimurium TA100 at 50 ug/plate by Ames test in absence of S9 fraction; format: toxicity, organism-based; conditions: salmonella enterica subsp. enterica serovar typhimurium
[13] = test system: Salmonella typhimurium; assay: Genotoxicity in Salmonella typhimurium TA100 at 16 ug/plate by Ames test in presence of S9 fraction; format: toxicity, organism-based; conditions: salmonella enterica subsp. enterica serovar typhimurium
[14] = test system: Salmonella typhimurium; assay: Genotoxicity in Salmonella typhimurium TA98 at 500 ug/plate by Ames test in absence of S9 fraction; format: toxicity, organism-based; conditions: salmonella enterica subsp. enterica serovar typhimurium
[15] = test system: Salmonella typhimurium; assay: Genotoxicity in Salmonella typhimurium TA98 at 500 ug/plate by Ames test in presence of S9 fraction; format: toxicity, organism-based; conditions: salmonella enterica subsp. enterica serovar typhimurium
[16] = test system: Salmonella typhimurium; assay: Genotoxicity in Salmonella typhimurium TA100 at 500 ug/plate by Ames test in absence of S9 fraction; format: toxicity, organism-based; conditions: salmonella enterica subsp. enterica serovar typhimurium
[17] = test system: Salmonella typhimurium; assay: Genotoxicity in Salmonella typhimurium TA100 at 500 ug/plate by Ames test in presence of S9 fraction; format: toxicity, organism-based; conditions: salmonella enterica subsp. enterica serovar typhimurium
[18] = test system: Mycobacterium tuberculosis; assay: Binding affinity to N-terminal His-tagged Mycobacterium tuberculosis DprE1 assessed as molecular weight shift due to semimercaptal covalent DprE1 adduct formation at 400 uM incubated for 5 hrs in presence of FAD and FPR by deconvoluted mass spectrometry
[19] = test system: Salmonella typhimurium; assay: Genotoxicity in Salmonella typhimurium TA98 at 50 ug/plate by Ames test in presence of S9 fraction; format: toxicity, organism-based; conditions: salmonella enterica subsp. enterica serovar typhimurium
[20] = test system: Salmonella typhimurium; assay: Genotoxicity in Salmonella typhimurium TA98 at 160 ug/plate by Ames test in absence of S9 fraction; format: toxicity, organism-based; conditions: salmonella enterica subsp. enterica serovar typhimurium
[21] = Clearance in iv dosed mouse; format: ADME, organism-based; conditions: in vivo
[22] = AUC100 in po dosed mouse; format: ADME, organism-based; conditions: in vivo
[23] = Volume of distribution at steady state in mouse; format: ADME, organism-based; conditions: in vivo, read-out: Vdss
[24] = test system: Mycobacterium tuberculosis; assay: Antimycobacterial activity against Mycobacterium tuberculosis H37Rv ATCC 27294 after 2 to 3 weeks by turbidity assay; format: functional
[25] = test system: Salmonella typhimurium; assay: Genotoxicity in Salmonella typhimurium TA98 at 5000 ug/plate by Ames test in absence of S9 fraction; format: toxicity, organism-based; conditions: salmonella enterica subsp. enterica serovar typhimurium
[26] = test system: Salmonella typhimurium; assay: Genotoxicity in Salmonella typhimurium TA100 at 5000 ug/plate by Ames test in absence of S9 fraction; format: toxicity, organism-based; conditions: salmonella enterica subsp. enterica serovar typhimurium
[27] = test system: Salmonella typhimurium; assay: Genotoxicity in Salmonella typhimurium TA98 at 5000 ug/plate by Ames test in presence of S9 fraction; format: toxicity, organism-based; conditions: salmonella enterica subsp. enterica serovar typhimurium
[28] = test system: Salmonella typhimurium; assay: Genotoxicity in Salmonella typhimurium TA100 at 5000 ug/plate by Ames test in presence of S9 fraction; format: toxicity, organism-based; conditions: salmonella enterica subsp. enterica serovar typhimurium
[29] = test system: Mycobacterium tuberculosis; assay: Antimycobacterial activity against Mycobacterium tuberculosis H37Rv ATCC 27294 assessed as log reduction CFU after 7 days by killing kinetic assay; format: functional
[30] = test system: Salmonella typhimurium; assay: Genotoxicity in Salmonella typhimurium TA100 at 1600 ug/plate by Ames test in absence of S9 fraction; format: toxicity, organism-based; conditions: salmonella enterica subsp. enterica serovar typhimurium
[31] = test system: Salmonella typhimurium; assay: Genotoxicity in Salmonella typhimurium TA100 at 160 ug/plate by Ames test in presence of S9 fraction; format: toxicity, organism-based; conditions: salmonella enterica subsp. enterica serovar typhimurium
[32] = Intrinsic clearance in human liver microsomes; format: ADME; conditions: read-out: CLH
[33] = Oral bioavailability in mouse; format: ADME, organism-based; conditions: in vivo
[34] = test system: Salmonella typhimurium; assay: Genotoxicity in Salmonella typhimurium TA98 at 50 ug/plate by Ames test in absence of S9 fraction; format: toxicity, organism-based; conditions: salmonella enterica subsp. enterica serovar typhimurium
[35] = test system: Salmonella typhimurium; assay: Genotoxicity in Salmonella typhimurium TA98 at 1600 ug/plate by Ames test in absence of S9 fraction; format: toxicity, organism-based; conditions: salmonella enterica subsp. enterica serovar typhimurium
[36] = test system: Salmonella typhimurium; assay: Genotoxicity in Salmonella typhimurium TA100 at 16 ug/plate by Ames test in absence of S9 fraction; format: toxicity, organism-based; conditions: salmonella enterica subsp. enterica serovar typhimurium
[37] = test system: Salmonella typhimurium; assay: Genotoxicity in Salmonella typhimurium TA98 at 1600 ug/plate by Ames test in presence of S9 fraction; format: toxicity, organism-based; conditions: salmonella enterica subsp. enterica serovar typhimurium
[38] = test system: Mycobacterium tuberculosis; assay: Antimycobacterial activity against Mycobacterium tuberculosis H37Rv ATCC 27294 infected in BMDM assessed as log reduction CFU after 7 days by killing kinetic assay; format: functional
[39] = test system: Mycobacterium tuberculosis; assay: Antimycobacterial activity against Mycobacterium tuberculosis H37Rv ATCC 27294 infected in human THP1 cells assessed as log reduction CFU after 7 days by killing kinetic assay; format: functional, THP-1

COCCN1CCN(C(=O)c2nc3cc(C(F)(F)F)cc([N+](=O)[O-])c3s2)CC1
IC50 [1]: Not Active
IC50 [2]: 17.9 µM
IC50 [3]: 0.247 µM
MIC [4]: 0.21 µg/mL (≈ 0.502 µM)
IC50 [5]: 5.24 µM
IC50 [6]: 55.9 µM
IC50 [7]: 19.5 µM
IC50 [8]: 90 µM
solubility [9]: 331 µM (≈ 138 µg/mL)
fraction unbound [10]: 0.061
microsomal CLint [11]: 25 µL/min/mg
Activity [12]: Toxic
Activity [13]: Toxic
Activity [14]: Toxic
Activity [15]: Toxic

COCc1nc2cc(C(F)(F)F)cc([N+](=O)[O-])c2s1
IC50 [3]: 5.9 µM
MIC [4]: > 32 µg/mL
Activity [16]: Non-toxic
Activity [17]: Non-toxic

O=C(NCc1cccnc1)c1sc2c([N+](=O)[O-])cc(C(F)(F)F)cc2[n+]1[O-]
MIC [4]: 0.03 µg/mL (≈ 0.0753 µM)
Activity [18]: Active

O=C(c1sc2c([N+](=O)[O-])cc(C(F)(F)F)cc2[n+]1[O-])N1CCCCC1
IC50 ([1]; read-out: IC50): 26.6 µM
IC50 [2]: 14.7 µM
IC50 [3]: 0.095 µM
MIC [4]: 0.03 µg/mL (≈ 0.0799 µM)
IC50 [5]: 1.21 µM
IC50 [6]: 17.7 µM
IC50 [7]: 3.91 µM
IC50 [8]: 24 µM
solubility [9]: 84.7 µM (≈ 31.8 µg/mL)
fraction unbound [10]: 0.103
microsomal CLint [11]: 102 µL/min/mg
Activity [12]: Toxic
Activity [19]: Toxic
Activity [13]: Toxic
Activity [20]: Toxic

COCCN1CCN(C(=O)c2nc3cc(C(F)(F)F)c(C)c([N+](=O)[O-])c3s2)CC1
IC50 [1]: Not Active
IC50 [2]: 9.56 µM
IC50 [3]: 1.7 µM
MIC [4]: 2 µg/mL (≈ 4.63 µM)
IC50 [5]: 58.6 µM
IC50 [6]: 64.9 µM
IC50 [7]: 95 µM
IC50 [8]: 100 µM
solubility [9]: 73 µM (≈ 31.6 µg/mL)
fraction unbound [10]: 0.043
microsomal CLint [11]: < 4 µL/min/mg
clearance [21]: 146 mL/min/kg
AUC [22]: 570 ng·h/mL
Vd [23]: 24.5 L/kg
MIC [24]: 2 µg/mL (≈ 4.63 µM)
Activity [25]: Non-toxic
Activity [26]: Non-toxic
Activity [27]: Non-toxic
Activity [28]: Non-toxic

O=C(NCc1ccccn1)c1sc2c([N+](=O)[O-])cc(C(F)(F)F)cc2[n+]1[O-]
IC50 [3]: 0.026 µM
MIC [4]: 0.02 µg/mL (≈ 0.0502 µM)
MIC [24]: 0.01 µg/mL (≈ 0.0251 µM)
Activity [29]: 2.5 log10CFU/ml

O=[N+]([O-])c1cc(C(F)(F)F)cc2nc(C3=NCCO3)sc12
MIC [4]: 1 µg/mL (≈ 3.15 µM)
Activity [14]: Toxic
Activity [15]: Toxic
Activity [30]: Toxic
Activity [31]: Toxic

Cc1c(C(F)(F)F)cc2nc(C3=N[C@H](C(=O)N4CCCC4)CO3)sc2c1[N+](=O)[O-]
IC50 ([1]; read-out: IC50): 22.1 µM
IC50 [2]: > 100 µM
IC50 [3]: 1.2 µM
MIC [4]: 2 µg/mL (≈ 4.67 µM)
IC50 [5]: > 100 µM
IC50 [6]: 73.5 µM
IC50 [7]: > 100 µM
IC50 [8]: > 100 µM
solubility [9]: 12 µM (≈ 5.14 µg/mL)
fraction unbound [10]: 0.063
microsomal CLint [11]: 37.9 µL/min/mg
microsomal CLint [32]: 9.6 µL/min/mg
clearance [21]: 83.5 mL/min/kg
bioavailability [33]: 22.5%
AUC [22]: 10200 ng·h/mL
Vd [23]: 3.5 L/kg
Activity [25]: Non-toxic
Activity [26]: Non-toxic
Activity [27]: Non-toxic
Activity [28]: Non-toxic

O=[N+]([O-])c1cc(C(F)(F)F)cc2c1sc(C1=NCCO1)[n+]2[O-]
IC50 [3]: 0.276 µM
MIC [4]: 0.4 µg/mL (≈ 1.2 µM)
Activity [12]: Toxic
Activity [19]: Toxic
Activity [13]: Toxic
Activity [20]: Toxic

COCCN1CCN(C(=O)c2sc3c([N+](=O)[O-])cc(C(F)(F)F)cc3[n+]2[O-])CC1
IC50 [3]: 0.027 µM
MIC [4]: 0.03 µg/mL (≈ 0.0691 µM)
Activity [34]: Toxic
Activity [12]: Toxic
Activity [19]: Toxic
Activity [13]: Toxic

O=C([C@@H]1COC(c2nc3cc(C(F)(F)F)cc([N+](=O)[O-])c3s2)=N1)N1CCCC1
IC50 ([1]; read-out: IC50): 12.4 µM
IC50 [2]: 53.1 µM
IC50 [3]: 0.654 µM
MIC [4]: 1.4 µg/mL (≈ 3.38 µM)
IC50 [5]: 3.4 µM
IC50 [6]: 24.2 µM
IC50 [7]: 18.6 µM
IC50 [8]: 82 µM
solubility [9]: 64.6 µM (≈ 26.8 µg/mL)
fraction unbound [10]: 0.06
microsomal CLint [11]: 76.6 µL/min/mg
microsomal CLint [32]: 5.3 µL/min/mg
clearance [21]: 49 mL/min/kg
bioavailability [33]: 27%
AUC [22]: 9180 ng·h/mL
Vd [23]: 1.44 L/kg
Activity [13]: Toxic
Activity [35]: Toxic
Activity [36]: Toxic
Activity [37]: Toxic

O=C(NCc1ccccn1)c1nc2cc(C(F)(F)F)cc([N+](=O)[O-])c2s1
IC50 [3]: 0.452 µM
MIC [4]: 0.6 µg/mL (≈ 1.57 µM)
MIC [24]: 0.12 µg/mL (≈ 0.314 µM)
Activity [29]: 2.5 log10CFU/ml
Activity [38]: 1 log10CFU/ml
Activity [39]: 1 log10CFU/ml
